Literature values as cited in patent publication US20230310317A1, “SOL-GEL COMPOSITION” (THE UNIVERSITY OF QUEENSLAND, priority 2020, published 2023).

Settings: aqueous media e.g. gel-based systems

C[C@@H]1C[C@H]2[C@@H]3CCC4=CC(=O)C=C[C@]4(C)[C@@]3(Cl)[C@@H](O)C[C@]2(C)[C@@]1(OC(=O)c1ccco1)C(=O)CCl [MF, mometasone furoate]
Solubility in aqueous media: practically insoluble
